Test results: patent US5200424A, “Use of 10-membered ring lactones as lipid regulators” (priority 1990, dated 1993)
pIC50: −log10 of the molar value.

What was measured:
[1] = test system: cholesterol biosynthesis in HEP-G2 cells; assay: Cholesterol biosynthesis inhibition in HEP-G2 liver cell cultures (14C-acetate); assay type: cell-based; conditions: Homo sapiens, HepG2, standard products, 1 h preincubation, 3 h with (14C)acetate, read-out: IC50, inhibition of cholesterol biosynthesis
Experimental: Monolayers of HEP-G2 cells in liproprotein-free nutrient medium are preincubated with appropriate concentrations of the substances of the formula I to be tested for one hour. After addition of the […] biosynthesis precursor sodium (^14 C)acetate the incubation is continued for 3 hours. After this a portion of the cells is subjected to alkaline hydrolysis after addition of an internal standard of ^3 H-cholesterol. The lipids from the hydrolyzed cells are extracted with a chloroform/methanol mixture. This lipid mixture is, after addition of carrier cholesterol, fractionated by preparative thin-layer chromatography, the cholesterol band is stained and then isolated, and the amount of ^14 C-cholesterol formed from the ^14 C-precursor is determined by scintigraphy. Cellular protein was determined in an aliquot of the cells so that the amount of ^14 C-cholesterol formed from ^14 C-precursor per mg of cellular protein per unit time can be calculated. The control is used for comparison for the inhibitory effect of an added test product so that it is possible to state directly the inhibition of the cholesterol biosynthesis at a particular molar concentration of the test product in the medium. The integrity of the cell culture and the absence of cell damage owing to exposure to the product is assessed morphologically (light microscopy) and measured biochemically by determining the lactic dehydrogenase release into the incubation medium on aliquots of the cell culture.

[2] = test system: serum lipoproteins; assay: Lipoprotein fractionation by ultracentrifugation in rats (serum cholesterol, protein, triglycerides; hypolipemic effect); assay type: in vivo, Rat, male, strain: HOE WISKf (SPF 71); conditions: for % Change compared with control, Protein LDL / % Change compared with control, Protein VLDL / % Change compared with control, Total cholesterol HDL / % Change compared with control, Total cholesterol LDL / % Change compared with control, Total cholesterol VLDL / % Change compared with control, Triglycerides VLDL / Cholesterol HDL/LDL Based on control / Cholesterol HDL/LDL: male rat, by gavage; for % Change compared with control, Protein LDL / % Change compared with control, Protein VLDL / % Change compared with control, Total cholesterol HDL / % Change compared with control, Total cholesterol LDL / % Change compared with control, Total cholesterol VLDL / % Change compared with control, Triglycerides VLDL: 7 administrations; for Cholesterol HDL/LDL Based on control: control 1.00; for Cholesterol HDL/LDL: control 3.75
Experimental: Male rats with an initial weight above 180 g received the test product of the formula I in polyethylene glycol 400 by gavage once a day (in the morning) (0.5 ml/100 g of body weight); the relevant control group received only the same amount of solvent. The last (7th) administration took place 24 hours before blood sampling and sacrifice. There was free access to feed and water during the test. Feed was withdrawn 24 hours before the retroorbital blood sampling, which took place under light ether anesthesia before and after the treatment period (that is to say on the 1st and 8th day). Serum glutamic-oxalate transaminase (SGOT), serum glutamic-pyruvic transaminase (SGPT), alkaline phosphatase (aP), bilirubin and creatinine were determined in the serum of each individual animal. […] Immediately after the blood sampling the animals were sacrificed by distortion of the spinal column. The livers were removed, and the relative liver weight was determined. In addition, the body weight gain and the feed consumption were investigated. The statistical analysis was carried out by Student's t test.
To analyze the serum lipoproteins, after the treatment period the serum of all rats in a group was pooled.

[3] = Body weight, relative liver weight and feed consumption in rats; assay type: in vivo, Rat, male, strain: HOE WISKf (SPF 71); conditions: for % Change from control, Body weight after / % Change from control, rel. feed consumption after: male rat, after treatment
Experimental: (§1) Male rats with an initial weight above 180 g received the test product of the formula I in polyethylene glycol 400 by gavage once a day (in the morning) (0.5 ml/100 g of body weight); the relevant control group received only the same amount of solvent. The last (7th) administration took place 24 hours before blood sampling and sacrifice. There was free access to feed and water during the test. Feed was withdrawn 24 hours before the retroorbital blood sampling, which took place under light ether anesthesia before and after the treatment period (that is to say on the 1st and 8th day). Serum glutamic-oxalate transaminase (SGOT), serum glutamic-pyruvic transaminase (SGPT), alkaline phosphatase (aP), bilirubin and creatinine were determined in the serum of each individual animal. The total glycerol was measured from the pooled serum of all animals in a group as measure of the triglycerides (Eggstein, M. Kreutz, F. H.: Klin. Wschr. 44, 262 and 267 (1966); Wahlefeld, A. W., in: H. O. Bergmeier: Methoden der enzymatischen Analyse (Methods of enzymatic analysis), 2nd Edition, Volume II, Verlag Chemie 1974, Page 1878). Immediately after the blood sampling the animals were sacrificed by distortion of the spinal column. The livers were removed, and the relative liver weight was determined. In addition, the body weight gain and the feed consumption were investigated. The statistical analysis was carried out by Student's t test.

[4] = Serum enzymes, bilirubin and creatinine in rats; assay type: in vivo, Rat, male, strain: HOE WISKf (SPF 71); conditions: for Bilirubin, Final, mean / Creatinine, Final, mean / Serum enzymes SGOT, Final, mean / Serum enzymes SGPT, Final, mean / Serum enzymes aP, Final, mean / Bilirubin, Initial, mean / Creatinine, Initial, mean / Serum enzymes SGOT, Initial, mean / Serum enzymes SGPT, Initial, mean / Serum enzymes aP, Initial, mean: male rat; for Bilirubin, Final, mean / Creatinine, Final, mean / Serum enzymes SGOT, Final, mean / Serum enzymes SGPT, Final, mean / Serum enzymes aP, Final, mean: after treatment (8th day); for Bilirubin, Initial, mean / Creatinine, Initial, mean / Serum enzymes SGOT, Initial, mean / Serum enzymes SGPT, Initial, mean / Serum enzymes aP, Initial, mean: before treatment (1st day)
Experimental: as §1

## C[C@H](CCCC(C)(C)O)[C@H]1CC[C@H]2[C@@H]3CC=C4C[C@@H](O)CC[C@]4(C)[C@H]3CC[C@]12C [25-hydroxycholesterol]
[1]
  pIC50: 6.64

## CCOC(=O)C(C)(C)Oc1ccc(Cl)cc1 [Clofibrate, clofibrate]
[2]; 100 mg/kg/day
  % Change compared with control, Protein LDL: +2%
  % Change compared with control, Protein VLDL: +5%
  % Change compared with control, Total cholesterol HDL: -26%
  % Change compared with control, Total cholesterol LDL: -31%
  % Change compared with control, Total cholesterol VLDL: -46%
  % Change compared with control, Triglycerides VLDL: +2%
  Cholesterol HDL/LDL Based on control: 1.08
  Cholesterol HDL/LDL: 4.03
[3]; rat, in vivo
  relative liver weight: increased

## CC[C@H](C)C(=O)O[C@H]1C[C@@H](C)C=C2C=C[C@H](C)[C@H](CC[C@@H]3C[C@@H](O)CC(=O)O3)[C@H]21 [Lovastatin, lovastatin]
[2]; 10 mg/kg/day
  % Change compared with control, Protein LDL: -16%
  % Change compared with control, Protein VLDL: -22%
  % Change compared with control, Total cholesterol HDL: -14%
  % Change compared with control, Total cholesterol LDL: -2%
  % Change compared with control, Total cholesterol VLDL: -32%
  % Change compared with control, Triglycerides VLDL: -15%
  Cholesterol HDL/LDL Based on control: 0.89
  Cholesterol HDL/LDL: 3.32
[2]; 50 mg/kg/day
  % Change compared with control, Protein LDL: -19%
  % Change compared with control, Protein VLDL: -40%
  % Change compared with control, Total cholesterol HDL: -15%
  % Change compared with control, Total cholesterol LDL: -26%
  % Change compared with control, Total cholesterol VLDL: -52%
  % Change compared with control, Triglycerides VLDL: -38%
  Cholesterol HDL/LDL Based on control: 1.14
  Cholesterol HDL/LDL: 4.29
[2]; 300 mg/kg/day
  % Change compared with control, Protein LDL: +5%
  % Change compared with control, Protein VLDL: -37%
  % Change compared with control, Total cholesterol HDL: -9%
  % Change compared with control, Total cholesterol LDL: +3%
  % Change compared with control, Total cholesterol VLDL: -49%
  % Change compared with control, Triglycerides VLDL: -34%
  Cholesterol HDL/LDL Based on control: 0.89
  Cholesterol HDL/LDL: 3.33
[2]; rat
  effect on LDL-cholesterol compared with the compound according to the invention: distinctly inferior
  effect on VLDL and HDL compared with the compound according to the invention: about identical
[4]; 10 mg/kg/day
  Bilirubin, Final, mean: 2.7 µmol/L
  Creatinine, Final, mean: 65 µmol/L
  Serum enzymes SGOT, Final, mean: 59 U/L
  Serum enzymes SGPT, Final, mean: 25 U/L
  Serum enzymes aP, Final, mean: 302 U/L
  Bilirubin, Initial, mean: 3.8 µmol/L
  Creatinine, Initial, mean: 60 µmol/L
  Serum enzymes SGOT, Initial, mean: 42 U/L
  Serum enzymes SGPT, Initial, mean: 31 U/L
  Serum enzymes aP, Initial, mean: 409 U/L
[4]; 50 mg/kg/day
  Bilirubin, Final, mean: 2.5 µmol/L
  Creatinine, Final, mean: 62 µmol/L
  Serum enzymes SGOT, Final, mean: 89 U/L
  Serum enzymes SGPT, Final, mean: 46 U/L
  Serum enzymes aP, Final, mean: 324 U/L
  Bilirubin, Initial, mean: 2.9 µmol/L
  Creatinine, Initial, mean: 60 µmol/L
  Serum enzymes SGOT, Initial, mean: 38 U/L
  Serum enzymes SGPT, Initial, mean: 31 U/L
  Serum enzymes aP, Initial, mean: 355 U/L
[4]; 300 mg/kg/day
  Bilirubin, Final, mean: 2.9 µmol/L
  Creatinine, Final, mean: 61 µmol/L
  Serum enzymes SGOT, Final, mean: 107 U/L
  Serum enzymes SGPT, Final, mean: 44 U/L
  Serum enzymes aP, Final, mean: 369 U/L
  Bilirubin, Initial, mean: 2.7 µmol/L
  Creatinine, Initial, mean: 64 µmol/L
  Serum enzymes SGOT, Initial, mean: 59 U/L
  Serum enzymes SGPT, Initial, mean: 32 U/L
  Serum enzymes aP, Initial, mean: 386 U/L
[4]; rat
  transaminase SGOT change: dose-dependent and distinctly pathological change
[1]
  pIC50: 7.64
[3]; 10 mg/kg/day
  % Change from control, Body weight after: +4%
  % Change from control, rel. feed consumption after: +8%
[3]; 50 mg/kg/day
  % Change from control, Body weight after: 0%
  % Change from control, rel. feed consumption after: +4%
[3]; 300 mg/kg/day
  % Change from control, Body weight after: +1%
  % Change from control, rel. feed consumption after: +1%
